Source: patent US20220296584A1, “Membrane Active Molecules” (priority 2017, published 2022)
Like-named read-outs stand apart in the source and are kept apart here.

Columns and labels:
Tadpoles = assay: Tadpole movement suppression (anesthetic efficacy); format: in vivo
Procedure: Tadpoles were placed in a petri dish containing aquarium water. Four to eight tadpoles were placed in each petri dish. The aquarium water contained the specified test compound at the listed concentration. When the tadpoles stopped moving, a plastic rod was used to elicit motion once again by contact between the rod and tadpole. […] From this and the number of subjects, the percent of tadpoles in which movement was suppressed were calculated.
After 1 to 30 minutes, they were again contacted with a rod to ensure the anesthetic effect had worn off
In some examples, subanesthetic concentrations of ethanol were added into the aquarium water. Tadpoles in which movement was prevented with exposure to a test compound and ethanol but not with exposure to a test compound alone were classified as partial anesthetics.

mice = conditions: intravenously; for Observed effect on the animals: 62.5 mM solution in intralipid
[1] = Concentration (mM): 125 + 150 EtOH
[2] = Concentration (mM): 250 + 150 EtOH
[3] = Concentration (mM): 50 + 150 EtOH
[4] = Concentration (mM): 20 + 150 EtOH
[5] = Concentration (mM): 25 + 150 EtOH
[6] = Concentration (mM): 100 + 150 EtOH
[7] = Concentration (mM): 12.5 + 150 EtOH

Compound: CCC(O)C(=O)O (stereo not shown) [2-Hydroxybutyric acid, 2-hydroxybutyric acid]
- Movement suppressed (%) (Tadpoles; Concentration (mM): 125): 0%
- Movement suppressed (%) (Tadpoles; [1]): 86%

Compound: O=C(O)CCC(=O)C(=O)O [2-Oxoglutaric acid]
- Movement suppressed (%) (Tadpoles; Concentration (mM): 200 + 150 EtOH): 86%
- Movement suppressed (%) (Tadpoles; [2]): 100%

Compound: CC(C)(C)CC(=O)O [3,3-Dimethylbutyric acid, 3,3-Dimethylbutanoic acid]
- Movement suppressed (%) (Tadpoles; Concentration (mM): 25): 100%

Compound: CC(C)(O)CC(=O)O [3-Hydroxy-3-methylbutyric acid, 3-Hydroxy-3-methylbutanoic acid]
- Movement suppressed (%) (Tadpoles; Concentration (mM): 1.6): 0%
- Movement suppressed (%) (Tadpoles; Concentration (mM): 6.25): 0%
- Movement suppressed (%) (Tadpoles; Concentration (mM): 25): 0%
- Movement suppressed (%) (Tadpoles; [3]): 100%
- Movement suppressed (%) (Tadpoles; Concentration (mM): 100): 100%

Compound: CCC(C)C(=O)C(=O)O (stereo not shown) [3-Methyl-2-oxovaleric acid, 3-Methyl-2-oxopentanoic acid]
- Movement suppressed (%) (Tadpoles; Concentration (mM): 250): 33%

Compound: Cc1cccc(C(=O)NCC(=O)O)c1 [3-Methylhippuric acid, (3-Methylbenzoyl)glycine]
- Movement suppressed (%) (Tadpoles; Concentration (mM): 3.125): 0%
- Movement suppressed (%) (Tadpoles; Concentration (mM): 3.125 + 150 EtOH): 100%

Compound: CCC(C)CC(=O)O (stereo not shown) [3-Methylvaleric acid, 3-Methylpentanoic acid]
- Movement suppressed (%) (Tadpoles; Concentration (mM): 20): 25%
- Movement suppressed (%) (Tadpoles; [4]): 66%

Compound: CC(=O)CCCC(=O)O [4-Acetylbutyric acid, 5-Oxohexanoic acid]
- Movement suppressed (%) (Tadpoles; Concentration (mM): 25): 0%
- Movement suppressed (%) (Tadpoles; [5]): 80%

Compound: Cc1ccc(C(=O)NCC(=O)O)cc1 [4-Methylhippuric acid, (4-Methylbenzoyl)glycine]
- Movement suppressed (%) (Tadpoles; [5]): 33%
- Movement suppressed (%) (Tadpoles; Concentration (mM): 50): 0%
- Movement suppressed (%) (Tadpoles; [3]): 100%
- Movement suppressed (%) (Tadpoles; Concentration (mM): 150 EtOH (no test compound concentration printed)): 0%

Compound: CC(C)CCC(=O)O [4-Methylvaleric acid]
- Movement suppressed (%) (Tadpoles; Concentration (mM): 20): 0%
- Movement suppressed (%) (Tadpoles; [4]): 100%

Compound: O=C(O)CCCCC(=O)O [Adipic acid, Hexanedioic acid]
- Movement suppressed (%) (Tadpoles; Concentration (mM): 50): 0%
- Movement suppressed (%) (Tadpoles; [3]): 83%

Compound: C[C@H](N)C(=O)O [Alanine]
- Movement suppressed (%) (Tadpoles; Concentration (mM): 62.5 + 150 EtOH): 20%
- Movement suppressed (%) (Tadpoles; [1]): 80%

Compound: O=C(NC(O)C(=O)O)c1ccccc1 (stereo not drawn) [Alpha-Hydroxyhippuric acid, 2-Benzamido-2-hydroxyacetic acid]
- Movement suppressed (%) (Tadpoles; Concentration (mM): 5): 33%
- Movement suppressed (%) (Tadpoles; Concentration (mM): 5 + 20 EtOH): 66%
- Movement suppressed (%) (Tadpoles; Concentration (mM): 10): 100%

Compound: N=C(N)NCCC[C@H](N)C(=O)O [Arginine]
- Movement suppressed (%) (Tadpoles; Concentration (mM): 46.5): 0%
- Movement suppressed (%) (Tadpoles; Concentration (mM): 192 + 150 EtOH): 83%

Compound: C[N+](C)(C)CCO [Choline]
- Movement suppressed (%) (Tadpoles; Concentration (mM): 46 + 150 EtOH): 0%
- Movement suppressed (%) (Tadpoles; [6]): 40%
- Movement suppressed (%) (Tadpoles; Concentration (mM): 120 + 150 EtOH): 66%

Compound: CC(C)(C(=O)O)C(=O)O [Dimethylmalonic acid]
- Movement suppressed (%) (Tadpoles; Concentration (mM): 125): 60%
- Movement suppressed (%) (Tadpoles; Concentration (mM): 250): 60%

Compound: CCO [Ethanol control, ethanol, reference compound]
- Movement suppressed (%) (Tadpoles; Concentration (mM): 100): 0%
- Movement suppressed (%) (Tadpoles; Concentration (mM): 150): 0%
- Movement suppressed (%) (Tadpoles; Concentration (mM): 200): 0%
- Movement suppressed (%) (Tadpoles; Concentration (mM): 250): 33%

Compound: N[C@@H](CCC(=O)O)C(=O)O [Glutamate, Glutamic acid]
- Movement suppressed (%) (Tadpoles; [3]): 100%

Compound: NC(=O)CC[C@H](N)C(=O)O [Glutamine]
- Movement suppressed (%) (Tadpoles; Concentration (mM): 25): 0%
- Movement suppressed (%) (Tadpoles; Concentration (mM): 50): 100%
- Movement suppressed (%) (Tadpoles; Concentration (mM): 100): 100%

Compound: O=C(O)CCCC(=O)O [Glutaric acid]
- Movement suppressed (%) (Tadpoles; Concentration (mM): 7.8): 0%
- Movement suppressed (%) (Tadpoles; Concentration (mM): 31): 0%
- Movement suppressed (%) (Tadpoles; Concentration (mM): 125): 0%
- Movement suppressed (%) (Tadpoles; [1]): 60%

Compound: O=C(O)Cc1c[nH]c2ccccc12 [Indole-3-acetic acid, 2-(1H-indol-3-yl)acetic acid]
- Movement suppressed (%) (Tadpoles; Concentration (mM): 12.5): 0%
- Movement suppressed (%) (Tadpoles; [7]): 100%

Compound: CC[C@H](C)[C@H](N)C(=O)O [Isoleucine]
- Movement suppressed (%) (Tadpoles; Concentration (mM): 25): 0%
- Movement suppressed (%) (Tadpoles; [6]): 60%

Compound: CC(C)C(C(=O)O)C(=O)O [Isopropyl malonic acid, 2-isopropylmalonic acid]
- Movement suppressed (%) (Tadpoles; Concentration (mM): 1.6): 0%
- Movement suppressed (%) (Tadpoles; Concentration (mM): 6.25): 0%
- Movement suppressed (%) (Tadpoles; Concentration (mM): 25): 50%
- Movement suppressed (%) (Tadpoles; [5]): 40%

Compound: O=C(O)c1cc(O)c2ccccc2n1 [Kynurenic acid, 4-hydroxyquinoline-2-carboxylic acid]
- Movement suppressed (%) (Tadpoles; Concentration (mM): 12.5): 0%
- Movement suppressed (%) (Tadpoles; [7]): 100%

Compound: NC(=O)C[C@H](N)C(=O)O [L-Asparagine, Asparagine]
- Movement suppressed (%) (Tadpoles; Concentration (mM): 100): 0%
- Movement suppressed (%) (Tadpoles; [6]): 66%

Compound: N[C@@H](CO)C(=O)O [L-Serine, Serine]
- Movement suppressed (%) (Tadpoles; Concentration (mM): 114): 0%
- Movement suppressed (%) (Tadpoles; Concentration (mM): 229 + 150 EtOH): 60%
- Movement suppressed (%) (Tadpoles; Concentration (mM): 300 + 150 EtOH): 100%

Compound: CC(C)[C@H](N)C(=O)O [L-valine, Valine]
- Movement suppressed (%) (Tadpoles; Concentration (mM): 7.8): 0%
- Movement suppressed (%) (Tadpoles; Concentration (mM): 31): 0%
- Movement suppressed (%) (Tadpoles; Concentration (mM): 125): 0%
- Movement suppressed (%) (Tadpoles; Concentration (mM): 500): 40%
- Movement suppressed (%) (Tadpoles; Concentration (mM): 500 + 150 EtOH): 100%

Compound: CC(=O)CCC(=O)O [Levulinic acid, 4-oxopentanoic acid]
- Movement suppressed (%) (Tadpoles; [6]): 50%

Compound: NCCCC[C@H](N)C(=O)O [Lysine]
- Movement suppressed (%) (Tadpoles; [2]): 50%

Compound: O=C(O)C(O)c1ccccc1 (stereo not shown) [Mandelic acid, 2-Hydroxy-2-phenylacetic acid]
- Movement suppressed (%) (Tadpoles; Concentration (mM): 250): 0%
- Movement suppressed (%) (Tadpoles; Concentration (mM): 300): 100%
- Movement suppressed (%) (Tadpoles; Concentration (mM): 500): 100%

Compound: CC(CC(=O)O)C(=O)O (stereo not shown) [Methylsuccinic acid]
- Movement suppressed (%) (Tadpoles; [2]): 43%

Compound: O=C(O)CC(=O)C(=O)O [Oxaloacetic acid, 2-Oxosuccinic acid]
- Movement suppressed (%) (Tadpoles; [1]): 100%

Compound: O=C(O)C(=O)Cc1ccccc1 [Phenylpyruvic acid, 2-Oxo-3-phenylpropanoic acid]
- Movement suppressed (%) (Tadpoles; Concentration (mM): 62.5): 100%
- Movement suppressed (%) (Tadpoles; Concentration (mM): 125): 100%

Compound: O=C(O)[C@@H]1CCCN1 [Proline]
- Movement suppressed (%) (Tadpoles; Concentration (mM): 103): 0%
- Movement suppressed (%) (Tadpoles; Concentration (mM): 411 + 150 EtOH): 100%

Compound: O=C(O)c1ccc2ccccc2n1 [Quinaldic acid, Quinoline-2-carboxylic acid]
- Movement suppressed (%) (Tadpoles; Concentration (mM): 25): 16%
- Movement suppressed (%) (Tadpoles; [5]): 60%

Compound: C[C@@H](O)CC(=O)O [R-3-hydroxybutyric acid, (R)-3-Hydroxybutanoic acid]
- Movement suppressed (%) (Tadpoles; Concentration (mM): 100): 0%
- Movement suppressed (%) (Tadpoles; Concentration (mM): 200): 0%
- Movement suppressed (%) (Tadpoles; Concentration (mM): 250): 0%
- Movement suppressed (%) (Tadpoles; Concentration (mM): 300): 0%
- Movement suppressed (%) (Tadpoles; Concentration (mM): 350): 0%
- Movement suppressed (%) (Tadpoles; Concentration (mM): 400): 46%
- Movement suppressed (%) (Tadpoles; Concentration (mM): 500): 100%

Compound: C[C@H](O)CC(=O)O [S-3-hydroxybutyric acid, (S)-3-Hydroxybutanoic acid]
- Movement suppressed (%) (Tadpoles; Concentration (mM): 100): 0%
- Movement suppressed (%) (Tadpoles; Concentration (mM): 200): 0%
- Movement suppressed (%) (Tadpoles; Concentration (mM): 250): 14%
- Movement suppressed (%) (Tadpoles; Concentration (mM): 300): 17%
- Movement suppressed (%) (Tadpoles; Concentration (mM): 350): 50%
- Movement suppressed (%) (Tadpoles; Concentration (mM): 400): 92%
- Movement suppressed (%) (Tadpoles; Concentration (mM): 500): 100%

Compound: O=C(O)CCCCCCC(=O)O [Suberic acid, Octanedioic acid]
- Movement suppressed (%) (Tadpoles; Concentration (mM): 10): 50%

Compound: N[C@@H](Cc1c[nH]c2ccccc12)C(=O)O [Tryptophan]
- Movement suppressed (%) (Tadpoles; Concentration (mM): 12.5): 0%
- Movement suppressed (%) (Tadpoles; [7]): 80%

Compound: CCOC(=O)C(CC)C(=O)OCC [diethyl ethyl malonate, Diethyl ethyl malonate]
- Observed effect on the animals (mice): lethargic and those loss coordination
- Lethality (mice; 250 mM solution in intralipid): lethal
- Lethality (mice; 1M solution in intralipid): lethal

Compound: CCOC(=O)C(CC)(C(=O)OCC)c1ccccc1 [diethyl ethylphenylmalonate]
- Observed effect on the animals (mice): lethargic and those loss coordination
- Lethality (mice; 250 mM solution in intralipid): lethal
- Lethality (mice; 1M solution in intralipid): lethal

Compound: Fumaric acid
- Movement suppressed (%) (Tadpoles; Concentration (mM): 25): 40%

Compound: Guanidine
- Movement suppressed (%) (Tadpoles; Concentration (mM): 62.5): 0%

Compound: Succinic acid
- Movement suppressed (%) (Tadpoles; Concentration (mM): 62.5): 0%

Compound: Tartaric acid [L-Tartaric acid]
- Movement suppressed (%) (Tadpoles; Concentration (mM): 50): 0%
